{"source": "patent US9365523B2", "about": "“Imidazolyl amide compounds and uses related thereto” (priority 2011, dated 2016)", "key": {"MeV-Alaska [1]": {"test_system": "MeV-Alaska", "experiment": "Viral CPE-reduction assay", "conditions": "Measles morbillivirus, read-out: EC50, suppression of viral cytopathic effect (CPE), CPE"}, "MeV-Alaska [2]": {"test_system": "MeV-Alaska", "experiment": "Virus yield reduction assay, MeV", "format": "cell-based, measles virus", "conditions": "Measles morbillivirus"}, "influenza A/WSN (H1N1)": {"test_system": "influenza A/WSN (H1N1)", "experiment": "microbe, parasite or virus in culture", "format": "cell-based", "conditions": "read-out: EC50, reduction of virus yield (WSN)"}, "HPIV3": {"test_system": "HPIV3", "experiment": "Virus yield reduction assay, HPIV3", "format": "cell-based, human parainfluenzavirus type 3", "conditions": "Human respirovirus 3"}, "MeV-Alaska [3]": {"test_system": "MeV-Alaska", "experiment": "Antiviral activity of compound analogs against MeV-Alaska (tables 1-5)", "format": "cell-based, measles virus"}}}
{"smiles": "Cc1ccc(NC(=O)C(C)Sc2nc3ccccc3n2-c2ccc(CCO)cc2)c(Cl)c1", "note": "(centres unmarked) [drawing 224]", "values": [{"measurement": "EC50", "setting": "MeV-Alaska [1]", "value": 2500, "unit": "nM"}]}
{"smiles": "Cc1ccc(NC(=O)C(C)Sc2nc3ccccc3n2-c2ccccc2CN2CCN(C)CC2)c(Cl)c1", "note": "(centres unmarked) [drawing 259]", "values": [{"measurement": "EC50", "setting": "MeV-Alaska [2]", "value": 40.8, "unit": "nM"}, {"measurement": "EC50", "setting": "influenza A/WSN (H1N1)", "value": 8, "unit": "nM"}]}
{"smiles": "COc1ccc(-n2c(SC(C)C(=O)Nc3ccc(C)cc3Cl)nc3cccnc32)cc1", "note": "(centres unmarked) [drawing 227]", "values": [{"measurement": "EC50", "setting": "MeV-Alaska [1]", "value": 1650, "unit": "nM"}]}
{"smiles": "Cc1ccc(NC(=O)[C@H](C)Sc2nc3ccccc3n2-c2ccc(CCN3CCOCC3)cc2)c(Cl)c1", "values": [{"measurement": "EC50", "setting": "MeV-Alaska [2]; MeV", "value": 179, "unit": "nM"}, {"measurement": "EC50", "setting": "influenza A/WSN (H1N1)", "value": 36, "unit": "nM"}, {"measurement": "EC50", "setting": "HPIV3", "value": 80, "unit": "nM"}]}
{"smiles": "COc1ccc(-n2c(SC(C)C(=O)Nc3c(Cl)cccc3Cl)nc3ccccc32)cc1", "note": "(centres unmarked) [Compound 28]", "values": [{"measurement": "EC50", "setting": "MeV-Alaska [3]; Table 1", "value": 2000, "unit": "nM"}]}
{"smiles": "Cc1ccc(NC(=O)/C=C\\c2nc3ccccc3n2-c2ccccc2)c(Cl)c1", "note": "[Compound 138]", "values": [{"measurement": "EC50", "setting": "MeV-Alaska [3]; Measles morbillivirus, Table 5", "value": "> 50000", "unit": "nM"}]}
{"smiles": "COc1ccc(-n2c(SC(C)C(=O)Nc3c(C)cccc3Cl)nc3ccccc32)cc1", "note": "(centres unmarked) [Compound 39]", "values": [{"measurement": "EC50", "setting": "MeV-Alaska [3]; Table 1", "value": 3900, "unit": "nM"}]}
{"smiles": "Cc1ccc(NC(=O)C(C)Sc2nc3ccccc3n2-c2cccc(CN3CCN(C)CC3)c2)c(Cl)c1", "note": "(centres unmarked) [drawing 252]", "values": [{"measurement": "EC50", "setting": "MeV-Alaska [1]", "value": 1280, "unit": "nM"}]}
{"smiles": "Cc1ccc(NC(=O)CSc2nc(-c3ccccc3)c(-c3ccccc3)[nH]2)c(Cl)c1", "note": "[Compound 142]", "values": [{"measurement": "EC50", "setting": "MeV-Alaska [3]; Measles morbillivirus, Table 5", "value": "> 75000", "unit": "nM"}]}
{"smiles": "COc1ccc(-n2c(SC(C)C(=O)Nc3ccccc3Cl)nc3ccccc32)cc1", "note": "(centres unmarked) [Compound 50]", "values": [{"measurement": "EC50", "setting": "MeV-Alaska [3]; Table 1", "value": 140, "unit": "nM"}]}
{"smiles": "COc1ccc(-n2c(/C=C/C(=O)Nc3ccc(C)cc3Cl)nc3ccccc32)cc1", "note": "[Compound 161]", "values": [{"measurement": "EC50", "setting": "MeV-Alaska [3]; Measles morbillivirus, Table 5", "value": "> 75000", "unit": "nM"}]}
{"smiles": "Cc1ccc(NC(=O)C(C)Sc2nc3ccccc3n2-c2ccc(N(C)CCN(C)C)cc2)c(Cl)c1", "note": "(centres unmarked) [Compound 60]", "values": [{"measurement": "EC50", "setting": "MeV-Alaska [3]; Table 2", "value": 2900, "unit": "nM"}]}
{"smiles": "Cc1ccc(NC(=O)C(C)Sc2nc3ccccc3n2-c2ccc(OCC#N)cc2)c(Cl)c1", "note": "(centres unmarked) [Compound 57]", "values": [{"measurement": "EC50", "setting": "MeV-Alaska [3]; Table 2", "value": 700, "unit": "nM"}]}
{"smiles": "Cc1ccc(NC(=O)C(C)Sc2nc3ccccc3n2[C@H]2CCCC[C@@H]2O)c(Cl)c1", "note": "(some centres unmarked)", "values": [{"measurement": "EC50", "setting": "MeV-Alaska [1]", "value": 872, "unit": "nM"}]}
{"smiles": "Cc1ccc(NC(=O)C(C)Sc2nc3ccccc3n2CC2CCN(Cc3ccc(F)cc3)CC2)c(Cl)c1", "note": "(centres unmarked)", "values": [{"measurement": "EC50", "setting": "MeV-Alaska [1]", "value": 1180, "unit": "nM"}]}
{"smiles": "COCCN1CCCC(n2c(SC(C)C(=O)Nc3ccc(C)cc3Cl)nc3ccccc32)C1", "note": "(centres unmarked)", "values": [{"measurement": "EC50", "setting": "MeV-Alaska [1]", "value": 1000, "unit": "nM"}]}
{"smiles": "C#CCn1c(SC(C)C(=O)Nc2ccc(C)cc2Cl)nc(-c2ccccc2)c1-c1ccccc1", "note": "(centres unmarked) [Compound 153]", "values": [{"measurement": "EC50", "setting": "MeV-Alaska [3]; Measles morbillivirus, Table 5", "value": "> 75000", "unit": "nM"}]}
{"smiles": "COc1ccc(-n2c(SC(C)C(=O)Nc3cc(C)on3)nc3ccccc32)cc1", "note": "(centres unmarked) [Compound 55]", "values": [{"measurement": "EC50", "setting": "MeV-Alaska [3]; Table 1", "value": 490, "unit": "nM"}]}
{"smiles": "COc1ccc(-n2c(SC(C)C(=O)Nc3ccc(C)c(N)c3)nc3ccccc32)cc1", "note": "(centres unmarked) [Compound 16]", "values": [{"measurement": "EC50", "setting": "MeV-Alaska [3]; Table 1", "value": 2300, "unit": "nM"}]}
{"smiles": "Cc1ccc(NC(=O)C(C)Sc2nc3ccccc3n2C2CCCCC2)c(Cl)c1", "note": "(centres unmarked) [drawing 216]", "values": [{"measurement": "EC50", "setting": "MeV-Alaska [1]", "value": 290, "unit": "nM"}]}
{"smiles": "COc1cc(OC)cc(-n2c(SC(C)C(=O)Nc3ncc(C)cc3Cl)nc3ccccc32)c1", "note": "(centres unmarked) [Compound 118]", "values": [{"measurement": "EC50", "setting": "MeV-Alaska [3]; Table 3", "value": 800, "unit": "nM"}]}
{"smiles": "Cc1ccc(NC(=O)C(C)Sc2nc3ccccc3n2C2CCN(C)CC2)c(Cl)c1", "note": "(centres unmarked) [Compound 94]", "values": [{"measurement": "EC50", "setting": "MeV-Alaska [3]; Table 2", "value": 1500, "unit": "nM"}]}
{"smiles": "Cc1ccc(NC(=O)C(C)Sc2nc3ccccc3n2-c2ccccc2)c(Cl)c1", "note": "(centres unmarked) [Compound 72]", "values": [{"measurement": "EC50", "setting": "MeV-Alaska [3]; Table 2", "value": 90, "unit": "nM"}]}
{"smiles": "CCC(Sc1nc2ccccc2n1-c1ccc(OC)cc1)C(=O)Nc1ncc(Cl)cc1Cl", "note": "(centres unmarked) [Compound 131]", "values": [{"measurement": "EC50", "setting": "MeV-Alaska [3]; Measles morbillivirus, Table 5", "value": 12200, "unit": "nM"}]}
{"smiles": "Cc1cnc(NC(=O)C(C)Sc2nc3ccccc3n2-c2ccccc2)c(Cl)c1", "note": "(centres unmarked) [Compound 109]", "values": [{"measurement": "EC50", "setting": "MeV-Alaska [3]; Table 3", "value": 130, "unit": "nM"}]}
{"smiles": "COc1ccc(Cn2c(SC(C)C(=O)Nc3ncc(C)cc3Cl)nc3ccccc32)cc1", "note": "(centres unmarked) [Compound 107]", "values": [{"measurement": "EC50", "setting": "MeV-Alaska [3]; Table 3", "value": 800, "unit": "nM"}]}
{"smiles": "Cc1ccc(NC(=O)C(C)Sc2nc3ccccc3n2-c2cccc(CN3CCOCC3)c2)c(Cl)c1", "note": "(centres unmarked) [Compound 83]", "values": [{"measurement": "EC50", "setting": "MeV-Alaska [3]; Table 2", "value": 270, "unit": "nM"}]}
{"smiles": "Cc1ccc(NC(=O)C(C)Sc2nc3ccccc3n2-c2ccc(N3CCOCC3)cc2)c(Cl)c1", "note": "(centres unmarked) [Compound 84]", "values": [{"measurement": "EC50", "setting": "MeV-Alaska [3]; Table 2", "value": 300, "unit": "nM"}]}
{"smiles": "Cc1ccc(NC(=O)C(C)Sc2nc3ccccc3n2-c2ccc(CC=O)cc2)c(Cl)c1", "note": "(centres unmarked) [Compound 62]", "values": [{"measurement": "EC50", "setting": "MeV-Alaska [3]; Table 2", "value": 8500, "unit": "nM"}]}
{"smiles": "COc1ccc(-n2c(SC(C)C(=O)Nc3ccc(C)cc3Cl)nc3ccccc32)cc1", "note": "(centres unmarked) [drawing 253]", "values": [{"measurement": "EC50", "setting": "influenza A/WSN (H1N1)", "value": 13.2, "unit": "nM"}, {"measurement": "EC50", "setting": "HPIV3", "value": 80, "unit": "nM"}]}
{"smiles": "COc1ccc(-n2c(SC(C)C(=O)Nc3cccnc3)nc3ccccc32)cc1", "note": "(centres unmarked) [Compound 23]", "values": [{"measurement": "EC50", "setting": "MeV-Alaska [3]; Table 1", "value": 8400, "unit": "nM"}]}
{"smiles": "Cc1ccc(NC(=O)C(C)Sc2nc3ccccc3n2-c2ccc(CN(C)C)cc2)c(Cl)c1", "note": "(centres unmarked) [Compound 98]", "values": [{"measurement": "EC50", "setting": "MeV-Alaska [3]; Table 2", "value": 1400, "unit": "nM"}]}
{"smiles": "Cc1ccc(NC(=O)C(C)Sc2nc3ccccc3n2-c2cccc(CCN3CCCC3)c2)c(Cl)c1", "note": "(centres unmarked)", "values": [{"measurement": "EC50", "setting": "MeV-Alaska [1]", "value": 1660, "unit": "nM"}]}
{"smiles": "Cc1ccc(NC(=O)C(C)Sc2nc3ccccc3n2CC2CCN(C(=O)OC(C)(C)C)CC2)c(Cl)c1", "note": "(centres unmarked)", "values": [{"measurement": "EC50", "setting": "MeV-Alaska [1]", "value": 1310, "unit": "nM"}]}
{"smiles": "Cc1ccc(NC(=O)C(C)Sc2nc3ccccc3n2C2CCCCC2)c(Cl)c1", "note": "(centres unmarked) [Compound 88]", "values": [{"measurement": "EC50", "setting": "MeV-Alaska [3]; Table 2", "value": 290, "unit": "nM"}]}
{"smiles": "Cc1ccc(NC(=O)[C@@H](C)Sc2nc3ccccc3n2-c2ccc(CCN3CCOCC3)cc2)c(Cl)c1", "values": [{"measurement": "EC50", "setting": "MeV-Alaska [2]", "value": 527, "unit": "nM"}, {"measurement": "EC50", "setting": "influenza A/WSN (H1N1)", "value": 117, "unit": "nM"}]}
{"smiles": "COc1ccc(-n2c(S[C@H](C)C(=O)Nc3ccc(C)cc3Cl)nc3ccccc32)cc1", "values": [{"measurement": "EC50", "setting": "MeV-Alaska [2]", "value": 879, "unit": "nM"}, {"measurement": "EC50", "setting": "influenza A/WSN (H1N1)", "value": 157, "unit": "nM"}]}
{"smiles": "CCOC(=O)c1ccc2[nH]c(SC(C)C(=O)Nc3ncc(C)cc3Cl)nc2c1", "note": "(centres unmarked) [Compound 164]", "values": [{"measurement": "EC50", "setting": "MeV-Alaska [3]; Measles morbillivirus, Table 5", "value": "> 75000", "unit": "nM"}]}
